Reference: patent USRE31588E, “Imidazolylmethylthioethyl alkynyl guanidines” (Bristol-Myers Company, priority 1981, dated 1984)
Entries after “also recorded” stand apart in the source; their conditions may differ.

Experiments:
gastric acid output [1] = assay: Gastric antisecretory activity in the gastric fistula dog (histamine-induced); format: in vivo, dog (beagle); conditions: for Onset of inhibitory effect on gastric acid output: iv
Method: Thomas type [Thomas, J. E., Proc. Soc. exp. Biol. Med., 46, 260 (1941)] stainless steel cannulae are inserted into the stomachs of beagle dogs (10-12 kg.) just orad to the pyloric gland area near the greater curvature to provide a chronic gastric fistula. Animals are allowed to recover for at least two months before any testing is done. Dogs are fasted overnight (~18 hours) with water ad lib prior to each experiment. The dogs are placed in a sling and an eight inch inside needle catheter (C. R. Baird, Inc.) with a 2 inch 17 gauge needle is inserted into a leg vein fior purposes of drug administration. Gastric secretions are collected every 15 minutes by gravity drainage from the opened cannula. […] A modification of the procedure described by Grossman and Konturek, Gastroenterology, 66, 517 (1974) was followed. […] Each 15 minute sample of gastric juice is measured to the nearest 0.5 ml. and titratable acidity against 0.02N NaOH (endpoint pH 7.0) is measured with an Autoburet and pH meter (radiometer). The percent inhibition of acid output is calculated as described in the pylorus ligated rat procedure.

[2] = target: T1, histamine H2-receptors (isolated, spontaneously beating guinea pig right atria) (Cavia porcellus, UniProt P47747); assay: Histamine H2-receptor antagonism, isolated guinea pig atria assay; format: cell-based; parameters: The spontaneously beating right atrium was dissected free from other tissues; from tissue; host or cells: isolated, spontaneously beating right atrium of male Hartley guinea pigs; conditions: for Histamine ED50 (concentration of histamine which increased contractile rate 50% of maximum) after test compound: test compound 1 × 10^-5 M, 30 minute incubation
T1 sequence (P47747 whole entry): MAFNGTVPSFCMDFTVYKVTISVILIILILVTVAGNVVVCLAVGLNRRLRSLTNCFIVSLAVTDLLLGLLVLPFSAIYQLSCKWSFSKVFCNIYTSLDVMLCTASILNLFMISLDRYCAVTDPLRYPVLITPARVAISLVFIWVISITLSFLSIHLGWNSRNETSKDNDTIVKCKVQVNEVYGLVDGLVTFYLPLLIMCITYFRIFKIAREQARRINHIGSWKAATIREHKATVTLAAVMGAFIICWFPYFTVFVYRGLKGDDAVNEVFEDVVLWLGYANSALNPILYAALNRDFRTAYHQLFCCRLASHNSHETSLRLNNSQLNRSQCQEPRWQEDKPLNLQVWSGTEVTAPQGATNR
Method: Subsequent investigations by Hughes and Coret, Proc. Soc. […] Black et al., Agents and Actions, 3, 133 (1973) and Brimblecombe et al., Fed. […] The present comparative studies were carried out using a modification of the procedure reported by Reinhardt et al., Agents and Actions, 4, 217 (1974).
Male Hartley strain guinea pigs (350-450 gm.) were sacrificed by a blow on the head. The heart was excised and placed in a Petri dish of oxygenated (95% O2, 5% CO2) modified Krebs solution (g./liter: NaCl 6.6, KCl 0.35, MgSO4. 7 H2 O 0.295, KH2 PO4 0.162, CaCl2 0.238, NaHCO3 2.1 and dextrose 2.09). The spontaneously beating right atrium was dissected free from other tissues and a silk thread (4-0) attached to each end. The atrium was suspended in a 20 ml. muscle chamber containing oxygenated modified Krebs solution maintained at 32° C. Atrial contractions were recorded isometrically by means of a Grass FT 0.03 force displacement transducer and recordings of contractile force and rate were made with a Beckman RP Dynograph.
A resting tension of 1 g. was applied to the atrium and it was allowed to equilibrate for 1 hour.
Concentration-response curve displacement factors were calculated as follows: [formula] The factor obtained for BL-5641 was then expressed as a ratio of the factor obtained for cimetidine. [formula]

gastric acid output [3] = assay: Gastric antisecretory activity in the two hour pylorus ligated (Shay) rat; format: in vivo, rat (male Long Evans); conditions: vs cimetidine
From the text: The pyloric ligation procedure in the rat was designed by Shay et al., Gastroenterology, 5, 53 (1945) for the study of perforating gastric ulcers; however, as the method became known, it was also employed as a means of studying rat gastric secretion, Shay et al., Gastroenterology, 26, 906 (1954), Brodie, D. A., Am. J. Dig. […] A modification of this procedure is presently used to evaluate compounds for gastric antisecretory activity.
Male Long Evans rats, 280-300 gm., are used. The animals are placed in individual cages and fasted for 24 hours with free access to water. Under ether anesthesia, the stomach is reached through a midline incision, and a cotton-thread ligature is placed around the pylorus. After wound closure, ether administration is stopped and either BL-5641, cimetidine or vehicle are administered intraperitoneally in a volume of […]. BL-5641 and cimetidine are solubilized with one equivalent of HCl and brought to the proper volume with water. The animals are returned to their cages from which the water bottles have been removed and two hours later are sacrificed with ether. […] Titratable acid output is calculated in microequivalents by multiplying the volume in milliliters by the acid concentration in milliequivalents per liter. The percent inhibition of acid output is calculated as follows [formula]

gastric secretion = conditions: cited from earlier work
H2 receptor = conditions: cited from earlier work
[4] = in vivo, cited from earlier work
peptic ulcer disease = conditions: Gray et al., Lancet 1977; cited from earlier work
[5] = clinical; cited from earlier work
[6] = target: T1, histamine H2-receptors (isolated, spontaneously beating guinea pig right atria); conditions: cited from earlier work

C#CCN=C(NC#N)NCCSCc1[nH]cnc1C [BL-5641, N-Cyano-N'-{2-[(4-methyl-5-imidazolyl)methylthio]ethyl}-N"-propargylguanidine]
Duration of activity (gastric acid output [1]; equal doses, vs cimetidine): longer duration of activity than cimetidine
Degree and duration of inhibition (gastric acid output [1]; equimolar doses, vs cimetidine): consistently greater and of longer duration with BL-5641 than with cimetidine
Onset of inhibitory effect on gastric acid output (gastric acid output [1]): immediate inhibitory effect on gastric acid output
Potency as inhibitor of gastric secretion (gastric acid output [1]; vs cimetidine): more potent and/or longer acting than cimetidine; also recorded: more potent than cimetidine
Potency as histamine H2-receptor antagonist ([2]; isolated guinea pig atria, vs cimetidine): more potent than cimetidine
Histamine ED50 (concentration of histamine which increased contractile rate 50% of maximum) after test compound [2]: 12.44 µg/mL
Potency for inhibition of gastric acid output (gastric acid output [3]): more potent than cimetidine; also recorded: at least as potent as cimetidine

CNC(=S)NCCCCc1cnc[nH]1 [Burimamide]
Inhibition of gastric secretion (gastric secretion; animals and man): inhibits gastric secretion in animals and man
Clinical effectiveness as H2 receptor antagonist (gastric secretion; clinical): first clinically effective H2 receptor antagonist
Mode of antagonism at histamine H2-receptors (H2 receptor; Black et al., Nature 1972): competitive antagonist
Oral absorption ([4]; po): oral absorption is poor

CNC(=NC#N)NCCSCc1[nH]cnc1C [Cimetidine]
Onset of inhibitory effect on gastric acid output (gastric acid output [1]): immediate inhibitory effect on gastric acid output
H2 antagonist potency/effectiveness (H2 receptor): as effective an H2 antagonist as metiamide
Effectiveness in treatment of peptic ulcer disease (peptic ulcer disease): effective therapeutic agent in the treatment of peptic ulcer disease
Half-life [4]: relatively short
Histamine ED50 (concentration of histamine which increased contractile rate 50% of maximum) after test compound [2]: 1.39 µg/mL
Agranulocytosis [5]: without producing agranulocytosis

NCCc1c[nH]cn1 [Histamine]
Effect on contractile rate of guinea pig right atria [6]: concentration-related increases in the contractile rate
Histamine concentration at which maximal response occurred ([2]; cumulative histamine addition): 30 µM

CNC(=S)NCCSCc1[nH]cnc1C [Metiamide]
Oral activity (gastric secretion; man): orally active in man
H2 antagonist potency/effectiveness (H2 receptor): more potent than burimamide
Agranulocytosis [5]: toxicity (agranulocytosis)
